Source: patent US8563053B2, “Compositions and methods of natural products in nanoformulations for the prevention and treatment of osteoporosis” (priority 2009, dated 2013)

How the values were obtained:
[1] = test system: healthy postmenopausal women; assay: Supplementation of healthy postmenopausal women with lycopene: oxidative stress and bone turnover markers; type: in vivo, human; conditions: 30 mg/day for 6 months
[2] = test system: postmenopausal women; assay: Postmenopausal women with high versus low dietary intake / serum lycopene: oxidative stress and bone markers; type: in vivo, human; conditions: women with higher serum lycopene
Description: Work of the inventors of the present invention, both experimental work and work with humans, provides evidence for a positive effect of the potent antioxidant “Lycopene” on bone health.

CC(C)=CCC/C(C)=C/C=C/C(C)=C/C=C/C(C)=C/C=C/C=C(C)/C=C/C=C(C)/C=C/C=C(\C)CCC=C(C)C [lycopene]
s-BALP ([1]; bone formation marker): increases | s-OC ([1]; bone formation marker): increases | s-CTX ([1]; bone resorption marker): significant decreases | u-NTX ([1]; bone resorption marker): significant decreases | bone turnover markers ([1]; healthy postmenopausal women): significantly improved | oxidative stress ([1]; healthy postmenopausal women): significantly improved | bone formation markers (s-Osteocalcin and bone-specific ALP) [2]: improve | bone resorption markers (u-NTX, s-CTX) [2]: improve | oxidative stress (lipid and protein oxidation, catalase and superoxide dismutase activities) [2]: reduced oxidative stress
